Measured values taken from patent US4432348A, “Enhancer of anti-tumor effect” (Yamasa Shoyu Kabushiki Kaisha, priority 1980, dated 1984).

How the values were obtained:
[1] = background art; cited from earlier work
[2] = system: adenosinedeaminase; conditions: cited from earlier work
[3] = system: EMT-6 tumor; assay: Radiosensitizing effect on EMT-6 experimental tumors in mice (enhancer i.p. after local irradiation); type: in vivo, BALB/c-strain female mice; conditions: for Radiosensitizing activity: summary statement; for Diameter ratio / Mean tumor diameter / Volume ratio: irradiation 1500 rad + i.p. enhancer (3'-dGuo-5'-MP 100 mg/kg; 3'-dAdo-5'-MP 75 mg/kg); for 0.5 to less than 1 of volume ratio excluding cure; Tumor regression rate: slow, share of mice / 1.0 to less than 2.0 of volume ratio excluding cure; regrowth: slow, share of mice / 2.0 or more of volume ratio excluding cure; regrowth: rapid, share of mice / Cure (tumors completely vanished), share of mice / Less than 0.5 of volume ratio excluding cure; Tumor regression rate: rapid, share of mice: 28th day after treatment, irradiation 1500 rad + enhancer (3'-dGuo-5'-MP 100 mg/kg; 3'-dAdo-5'-MP 75 mg/kg); for Mean tumor diameter at the time of irradiation: baseline before irradiation (1500 rad) and i.p. enhancer (3'-dGuo-5'-MP 100 mg/kg, n = 9; 3'-dAdo-5'-MP 75 mg/kg, n = 10)
Description: EMT-6 tumor cells (2×10^5) were inoculated intradermally into the right thighs of BALB/c-strain female mice (8 weeks old, 6 or more mice for each group). When the tumor size reached 6 to 7 mm in diameter after inoculation of the tumor cells, local irradiation with a 32 MeV electron beam was carried out at 1,500 rad under no anesthesia and thereafter 3'-dGuo-5'-MP and 3'-dAdo-5'-MP dissolved in physiological saline solution, was administered intraperitoneally to each mouse in the indicated doses of respective agents. After these treatments, the tumor sizes were measured in tri-dimensional diameters every day or every other day for 28 days, and compared with the control group with respect to the following items: [formula]
The results are shown in Table 1 and Table 2, in which "cure" means that the tumors completely vanished during the observation period.

[4] = system: potentially lethal damage repair (PLDR); assay: Inhibition of potentially lethal damage repair (PLDR)
From the text: In view of the fact that the tumor cells with radioresistance under hypoxic conditions are at a quiescent stage, I have investigated the possibility of radiosensitization by inhibiting potentially lethal damage repair (hereinafter referred to as "PLDR"), which is especially marked in quiescent cells.

[5] = system: adenosinedeaminase; conditions: in bodies; cited from earlier work
[6] = Acute toxicity test, intraperitoneal; conditions: mouse, in vivo, ip, ICR mice, male, 8 weeks old, observed for a week
Description: The compounds of this invention were administered intraperitoneally to ICR mice (male, 8 weeks old, 10 mice for each group), and the mice were subjected to observation for a week.

[7] = system: EMT-6 tumor; assay: Enhancement of the effect of anti-tumor agents (araC) on EMT-6 experimental tumors in mice; type: in vivo, BALB/c-strain female mice
Description: EMT-6 tumor cells (1×10^6) were inoculated intradermally into the right thighs of BALB/c-strain female mice (8 weeks old). On the 11th day after inoculation of the tumor cells and thereafter, 3'-dGuo-5'-MP in physiological saline solutions were administered intrapenitoneally to the mice for 8 consecutive days in the dose of 50 mg/kg. The pharmaceutical agents of the present invention were administered an hour after administration of araC. After commencement of the treatment with pharmaceutical agents, the tumor sizes were measured and compared with the control group.

[8] = 7 days after commencement of treatment, single agent 50 mg/kg × 8
[9] = 7 days after commencement of treatment, single agent 50 mg/kg × 8 (n = 10)
[10] = 14 days after commencement of treatment, single agent 50 mg/kg × 8
[11] = 14 days after commencement of treatment, single agent 50 mg/kg × 8 (n = 10)
[12] = 21 days after commencement of treatment, single agent 50 mg/kg × 8
[13] = 21 days after commencement of treatment, single agent 50 mg/kg × 8 (n = 10)
[14] = immediately before commencement of treatment, single agent 50 mg/kg × 8 (n = 10)

Row | Compound | Toxicity / side effects [1] | Radiosensitizing activity [3] | LD50 at 168 h [6] [mg/kg] | Diameter ratio ([3]; 2 weeks after treatment) | Mean tumor diameter ([3]; 2 weeks after treatment) [mm] | Volume ratio ([3]; 2 weeks after treatment) | Diameter ratio ([3]; 3 weeks after treatment) | Mean tumor diameter ([3]; 3 weeks after treatment) [mm] | Volume ratio ([3]; 3 weeks after treatment) | 0.5 to less than 1 of volume ratio excluding cure; Tumor regression rate: slow, share of mice [3] [%] | 1.0 to less than 2.0 of volume ratio excluding cure; regrowth: slow, share of mice [3] [%] | 2.0 or more of volume ratio excluding cure; regrowth: rapid, share of mice [3] [%] | Cure (tumors completely vanished), share of mice [3] [%] | Less than 0.5 of volume ratio excluding cure; Tumor regression rate: rapid, share of mice [3] [%] | Mean tumor diameter at the time of irradiation [3] [mm] | Mean tumor diameter ratio [7, 8] | Mean tumor diameter [7, 9] [mm] | Mean tumor diameter ratio [7, 10] | Mean tumor diameter [7, 11] [mm] | Mean tumor diameter ratio [7, 12] | further results
1 | OC[C@H]1O[C@@H](n2cnc3c2NC=NC[C@H]3O)C[C@@H]1O [2'-deoxycoformycin] | may cause damage to the immune systems | – | – | – | – | – | – | – | – | – | – | – | – | – | – | – | – | – | – | – | Adenosinedeaminase inhibition [2]: inhibitor against adenosinedeaminase
2 | Nc1ncnc2c1ncn2[C@@H]1O[C@H](CO)C[C@H]1O [3'-dAdo, 3'-deoxyadenosine] | various side effects | excellent radiosensitizing activities | – | – | – | – | – | – | – | – | – | – | – | – | – | – | – | – | – | – | PLDR-inhibiting ability [4]: confirmed to have a PLDR-inhibiting ability; PLDR-inhibiting ability in combination with 2'-deoxycoformycin ([4]; in combination with 2'-deoxycoformycin): can be strengthened and prolonged; Inactivation by adenosinedeaminase [5]: readily inactivated by adenosinedeaminase
3 | Nc1ncnc2c1ncn2[C@@H]1O[C@H](COP(=O)(O)O)C[C@H]1O [3'-dAdo-5'-MP, 3'-deoxyadenosine-5'-monophosphate] | – | excellent radiosensitizing activities | 500 | 0.66 ± 0.14 | 4.75 ± 1.06 | 0.63 ± 0.18 | 0.49 ± 0.17 | 3.65 ± 1.24 | 0.58 ± 0.27 | 0 | 20 | 10 | 50 | 20 | 7.07 ± 0.23 | – | – | – | – | – | –
4 | Nc1nc2c(ncn2[C@@H]2O[C@H](COP(=O)(O)O)C[C@H]2O)c(=O)[nH]1 [3'-dGuo-5'-MP, 3'-deoxyguanosine-5'-monophosphate] | – | excellent radiosensitizing activities | > 1000 | 0.93 ± 0.13 | 6.17 ± 0.90 | 1.19 ± 0.32 | 0.90 ± 0.18 | 5.95 ± 1.22 | 1.45 ± 0.46 | 22 | 56 | 0 | 22 | 0 | 6.46 ± 0.23 | 1.30 ± 0.13 | 9.83 ± 1.07 | 1.61 ± 0.27 | 12.10 ± 2.00 | 2.05 ± 0.32 | Mean tumor diameter ratio ([7]; 7 days after commencement, combination araC 50 mg/kg × 8 + 3'-dGuo-5'-MP 50 mg/kg × 8): 1.13 ± 0.15; Mean tumor diameter ([7]; 7 days after commencement, combination araC 50 mg/kg × 8 + 3'-dGuo-5'-MP 50 mg/kg × 8 (1 h after araC)): 8.28 ± 1.11 mm; Mean tumor diameter ratio ([7]; 14 days after commencement, combination araC 50 mg/kg × 8 + 3'-dGuo-5'-MP 50 mg/kg × 8): 1.26 ± 0.51; Mean tumor diameter ([7]; 14 days after commencement, combination araC 50 mg/kg × 8 + 3'-dGuo-5'-MP 50 mg/kg × 8 (1 h after araC)): 9.12 ± 3.67 mm; Mean tumor diameter [7, 13]: 15.40 ± 2.01 mm; Mean tumor diameter ratio ([7]; 21 days after commencement, combination araC 50 mg/kg × 8 + 3'-dGuo-5'-MP 50 mg/kg × 8): 1.67 ± 0.68; Mean tumor diameter ([7]; 21 days after commencement, combination araC 50 mg/kg × 8 + 3'-dGuo-5'-MP 50 mg/kg × 8 (1 h after araC)): 12.07 ± 4.98 mm; Mean tumor diameter ([7]; immediately before commencement of treatment, combination araC 50 mg/kg × 8 + 3'-dGuo-5'-MP 50 mg/kg × 8 (n = 9)): 7.34 ± 0.62 mm; Mean tumor diameter [7, 14]: 7.57 ± 0.64 mm
5 | Nc1ccn([C@@H]2O[C@H](CO)[C@@H](O)[C@@H]2O)c(=O)n1 [araC, 1-β-D-arabinofuranosylcytosine, reference compound] | – | – | – | – | – | – | – | – | – | – | – | – | – | – | – | 1.29 ± 0.13 | 9.63 ± 0.68 | 1.60 ± 0.20 | 11.91 ± 1.21 | 2.08 ± 0.20 | Mean tumor diameter [7, 13]: 15.49 ± 1.26 mm; Mean tumor diameter [7, 14]: 7.49 ± 0.63 mm
6 | COCC(O)Cn1ccnc1[N+](=O)[O-] (stereo not drawn) [misonidazole] | neurotoxicity | – | – | – | – | – | – | – | – | – | – | – | – | – | – | – | – | – | – | – | –
